From patent publication US20110269700A1, “GLUCOSIDE DERIVATIVES AND USES THEREOF” (NOVARTIS AG, priority 2008, published 2011)

What was measured:
[1] = biological target: T1, human sodium glucose cotransporter 2 (Homo sapiens, UniProt P31639); experiment: SGLT2 assay: 14C-AMG uptake in CHO-hSGLT2 or HEK-hSGLT2 cells; format: cell-based; conditions: n = 1-4
T1 construct: expressed in transfected cells; host or cells: CHO-K1 (ATCC CCL-61) or HEK293 (ATCC CRL-1573), stably transfected with pZeoSV
T1 sequence (P31639 1-672): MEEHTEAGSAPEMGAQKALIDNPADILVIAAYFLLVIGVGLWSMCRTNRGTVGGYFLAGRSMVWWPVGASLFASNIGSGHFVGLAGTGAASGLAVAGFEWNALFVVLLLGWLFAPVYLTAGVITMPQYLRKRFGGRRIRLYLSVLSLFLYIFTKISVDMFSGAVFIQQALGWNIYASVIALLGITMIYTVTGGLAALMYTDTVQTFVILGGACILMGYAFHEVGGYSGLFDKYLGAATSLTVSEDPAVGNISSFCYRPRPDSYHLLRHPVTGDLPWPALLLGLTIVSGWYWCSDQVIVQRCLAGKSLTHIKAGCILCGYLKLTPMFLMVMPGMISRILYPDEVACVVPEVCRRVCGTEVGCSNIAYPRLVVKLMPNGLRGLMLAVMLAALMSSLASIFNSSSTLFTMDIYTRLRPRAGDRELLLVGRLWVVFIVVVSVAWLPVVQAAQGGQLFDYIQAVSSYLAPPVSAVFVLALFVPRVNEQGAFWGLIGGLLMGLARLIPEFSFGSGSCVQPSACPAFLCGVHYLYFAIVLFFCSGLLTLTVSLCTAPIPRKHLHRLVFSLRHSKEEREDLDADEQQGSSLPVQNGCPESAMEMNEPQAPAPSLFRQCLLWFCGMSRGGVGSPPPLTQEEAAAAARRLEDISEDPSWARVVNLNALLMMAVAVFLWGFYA
Description: These cell lines transport ^14C-labeled alpha-methyl-glucopyranoside (^14C-AMG, Amersham) into the interior of the cell in sodium-dependent manner.
The SGLT-2 assay is carried out as follows: CHO-hSGLT2 cells are cultivated in Ham's F12 Medium (BioWhittaker) with 10% fetal calf serum and 250 μg/mL zeocin (Invitrogen), and HEK293-hSGLT2 cells are cultivated in DMEM medium with 10% fetal calf serum and 250 μg/mL zeocin (Invitrogen). The cells are detached from the culture flasks by washing twice with PBS and subsequently treating with trypsin/EDTA. After the addition of cell culture medium the cells are centrifuged, resuspended in culture medium and counted in a Casy cell counter. Then 40,000 cells per well are seeded into a white, 96-well plate coated with poly-D-lysine and incubated overnight at 37° C., 5% CO2. The cells are washed twice with 250 μl of assay buffer (Hanks Balanced Salt Solution, 137 mM NaCl, 5.4 mM KCl, 2.8 mM CaCl2, 1.2 mM MgSO4 and 10 mM HEPES (pH 7.4), 50 μg/mL of gentamycin). 250 μl of assay buffer and 5 μl of test compound are then added to each well and the plate is incubated for a further 15 minutes in the incubator. 5 μl of 10% DMSO are used as the negative control. The reaction is started by adding 5 μl of 14 C-AMG (0.05 μCi) to each well. After 2 hours' incubation at 37° C., 5% CO2, the cells are washed again with 250 μl of PBS ([…]) and then lysed by the addition of 25 μl of 0.1 N NaOH (5 min. at 37° C.). 200 μl of MicroScint20 (Packard) are added to each well and incubation is continued for a further 20 min at 37° C. After this incubation the radioactivity of the 14 C-AMG absorbed is measured in a Topcount (Packard) using a 14 C scintillation program.

[2] = biological target: T2, human SGLT1 (Homo sapiens, UniProt P13866); experiment: SGLT1 assay: 14C-AMG uptake in CHO-K1 or HEK293 cells expressing hSGLT1; format: cell-based; conditions: n = 1-4
T2 construct: expressed in transfected cells; host or cells: CHO-K1 or HEK293
T2 sequence (P13866 1-664): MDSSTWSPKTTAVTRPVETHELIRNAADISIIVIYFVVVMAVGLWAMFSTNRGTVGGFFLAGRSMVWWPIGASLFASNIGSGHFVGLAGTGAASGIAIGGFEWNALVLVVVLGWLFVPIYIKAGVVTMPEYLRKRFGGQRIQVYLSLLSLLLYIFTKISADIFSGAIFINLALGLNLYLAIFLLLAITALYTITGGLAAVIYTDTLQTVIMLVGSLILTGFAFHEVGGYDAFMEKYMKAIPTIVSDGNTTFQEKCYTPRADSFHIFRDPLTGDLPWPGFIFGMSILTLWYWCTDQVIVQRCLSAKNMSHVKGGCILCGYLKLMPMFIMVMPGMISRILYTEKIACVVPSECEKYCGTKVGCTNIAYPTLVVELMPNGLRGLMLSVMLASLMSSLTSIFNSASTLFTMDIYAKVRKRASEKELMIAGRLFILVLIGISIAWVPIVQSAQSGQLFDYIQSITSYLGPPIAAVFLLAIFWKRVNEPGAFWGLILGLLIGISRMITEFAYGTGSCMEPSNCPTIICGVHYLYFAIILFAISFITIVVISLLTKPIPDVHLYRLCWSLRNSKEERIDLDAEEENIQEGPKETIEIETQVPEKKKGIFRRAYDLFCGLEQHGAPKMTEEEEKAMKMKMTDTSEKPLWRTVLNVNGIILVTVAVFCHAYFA
Description: To determine human SGLT1 inhibitory activity, an analogous test was set up in which the cDNA for hSGLTI (Genbank Ace. No. NM000343) instead of hSGLT2 cDNA is expressed in CHO-K1 or HEK293 cells. The uptake assay buffer in the case of the hSGLT1 assay contains 10 mM HEPES, 5 mM Tris, 140 mM NaCl, 2 mM KCl, 1 mM CaCl2, and 1 mM MgCl2, pH 7.4 containing 0.5 mM of α-methyl-D-glucopyranoside (AMG), 10 μM of [^14C]-α-methyl-D-glucopyranoside and different inhibitor concentrations.

IC50 [1] [nM] | IC50 [2] [nM] | Structure (SMILES)
94 | > 10000 | CCOc1ccc(Cc2cc([C@@H]3O[C@H](Cn4nncc4CO)[C@@H](O)[C@H](O)[C@H]3O)ccc2Cl)cc1 [Example 9, (2S, 3R, 4R, 5S, 6R)-2-[4-Chloro-3-(4-ethoxy-benzyl)-phenyl]-6-(5-hydroxymethyl-[1,2,3]triazol-1-ylmethyl)-tetrahydro-pyran-3,4,5-triol]
50 | 32000 | CCOc1ccc(Cc2cc([C@@H]3O[C@H](Cn4cc(CO)nn4)[C@@H](O)[C@H](O)[C@H]3O)ccc2Cl)cc1 [Example 10, (2S, 3R, 4R, 5S, 6R)-2-[4-Chloro-3-(4-ethoxy-benzyl)-phenyl]-6-(4-hydroxymethyl-[1,2,3]triazol-1-ylmethyl)-tetrahydro-pyran-3,4,5-triol]
81 |  | CCOc1ccc(Cc2cc([C@@H]3O[C@H](Cn4cc(C(N)=O)nn4)[C@@H](O)[C@H](O)[C@H]3O)ccc2Cl)cc1 [Example 12, 1-{(2R,3S,4R,5R,6S)-6-[4-Chloro-3-(4-ethoxy-benzyl)-phenyl]-3,4,5-trihydroxy-tetrahydro-pyran-2-ylmethyl}-1H-[1,2,3]triazole-4-carboxylic acid amide]
23 | 1500 | CCOc1ccc(Cc2cc([C@@H]3O[C@H](CNc4cccc(NC(C)=O)c4)[C@@H](O)[C@H](O)[C@H]3O)ccc2Cl)cc1 [Example 34, N-[3-({(2R,3S,4R,5R,6S)-6-[4-Chloro-3-(4-ethoxy-benzyl)-phenyl]-3,4,5-trihydroxy-tetrahydro-pyran-2-ylmethyl}-amino)-phenyl]-acetamide]
10 | 280 | CCOc1ccc(Cc2cc([C@@H]3O[C@H](CN(C)c4cccc(C(=O)N5CCCC5)c4)[C@@H](O)[C@H](O)[C@H]3O)ccc2Cl)cc1 [Example 37, [3-({(2R,3S,4R,5R,6S)-6-[4-Chloro-3-(4-ethoxy-benzyl)-phenyl]-3,4,5-trihydroxy-tetrahydro-pyran-2-ylmethyl}-methyl-amino)-phenyl]-pyrrolidin-1-yl-methanone]
